Experimental data as given in patent US20040116420A1 (priority 2001, published 2004).

Legend:
[1] = target: T1, HSV-1 protease (Human herpesvirus 1, UniProt P10210); assay: Enzymatic assay for HSV-1 protease (assembly) inhibitor, fluorescence polarization; format: biochemical; details: read-out: HSV-1 Enzyme inhibition IC50
T1 construct: 6xHis (N); made in house; host or cells: baculovirus expression system
Procedure, shortened: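 Fluorescence polarization read-out: after avidin stop, cleavage of a biotinylated DTAF-labelled release-site peptide by recombinant N-His6 HSV-1 protease was compared with no-inhibitor wells. Enzyme and compound were preincubated 30 min, then substrate reacted 60 min, all at room temperature, pH 7.4 citrate buffer with TCEP.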

[2] = test system: HSV1 DNA polymerase variant; assay: Antiviral activity 2, plaque formation in HEL cells; format: cell-based, HSV-1; details: Human alphaherpesvirus 1, HEL, 72 h, read-out: Antiviral activity: IC50, HSV1 DNA polymerase variant
Experimental: (§1) An Assay Method for Antiviral Activity 2
(§2) The HEL cells were sowed on a 48-well plate and then cultured overnight. The culture supernatant was removed, and 100 μl of 2% FBS-DMEM containing 40 Plaque-forming units of HSV-1, HSV-2, VZV, or CMV was added. A viral solution Was removed 1 hour later, and 500 μl of 2% FBS-DMEM containing 0.5% methylcellulose comprising 50, 25, 12.5, 6.3, 3.2, or 1.6 μM of the test compound was added. In this case, a substance to which 2% FBS-DMEM containing 0.5% methylcellulose not comprising any test compound had been added was designated as a control. In the case of HSV-1, HSV-2, or VZV, incubation was carried out in the presence of 5% CO2 at 37° C. for 3 days. In the case of CMV, incubation was carried out under the same conditions for 14 days. After they were immobilized on formalin and stained with bromophenol blue, the amount of plaque formed was counted, and the ratio of plaque formation of the drug-containing reaction system relative to the control was determined. The concentration of the drug with which the ratio of plaque formation reaches 50% was calculated and determined to be IC50. Concerning HSV-1, an aciclovir-resistant thymidine kinase variant and a DNA polymerase variant were examined in addition to a general aciclovir-sensitive strain.

[3] = test system: HSV1 Sensitive strain; assay: as above; format: cell-based, HSV-1; details: Human alphaherpesvirus 1, 72 h, 3 days
Experimental: as §1, §2

[4] = test system: HSV1 Thimidine kinase variant; assay: as above; format: cell-based, HSV-1; details: Human alphaherpesvirus 1, HEL, 72 h, read-out: Antiviral activity: IC50, HSV1 Thimidine kinase variant
Experimental: as §1, §2

[5] = test system: HSV-1; assay: Antiviral activity, HSV-1 in Vero cells, plaque method; format: cell-based; details: Human alphaherpesvirus 1, 20 hours, 90% inhibition of plaque formation
Procedure, shortened: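 This is a virus-yield read-out. The culture medium was frozen at −80° C and thawed, and the plaques it formed were counted. It came from Vero monolayers infected with 50,000 pfu HSV-1 and then exposed to the compound for 20 h at 37° C. EC90 is the concentration inhibiting 90% of plaque formation relative to the untreated infected control.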

[6] = Human plasma stability; format: in vitro ADME
Experimental: An Assay Method for Human Plasma Stability Human plasma was thawed, 200 μl each thereof was placed in each cell of a 96-well plate immediately thereafter, and 4 μl of solution of each test compound in 1 mM DMF was added thereto. A microplate reader for fluorescence absorption was used to assay changes in fluorescence, and half life was determined based on the changes.

T1 sequence (P10210 1-247): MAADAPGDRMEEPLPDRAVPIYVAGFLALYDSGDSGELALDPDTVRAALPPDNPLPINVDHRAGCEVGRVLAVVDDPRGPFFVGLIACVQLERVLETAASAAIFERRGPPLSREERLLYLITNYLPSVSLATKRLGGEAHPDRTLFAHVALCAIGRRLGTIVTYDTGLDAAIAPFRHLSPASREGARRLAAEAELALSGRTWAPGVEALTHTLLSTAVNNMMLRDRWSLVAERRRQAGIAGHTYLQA

Cc1c(NC(=O)OC(C)(C)C)ccc2nc(NC(C)(C)C(=O)N(C)CCc3ccccn3)oc(=O)c12 [Compound No.18, (5-methyl-2-{1-methyl-1-[methyl-(2-pyridin-2-yl-ethyl)-carbamoyl]-ethylamino}-4-oxo-4H-benzo[d][1,3]oxazin-6-yl)-carbamic Acid Tert-Butyl Ester]
IC50 [1]: 0.4 µM | IC50 [2]: 17.1 µM | IC50 [3]: 10 µM | IC50 [4]: 22.5 µM | EC90 [5]: 8.4 µM | half-life at 19.6 μM [6]: 2.83 h
